In brackets after ≈: the same amount, converted by molar mass.
Assays:
[1] = system: Mycobacterium tuberculosis; test: Antimycobacterial activity against Mycobacterium tuberculosis assessed as inhibition of bacterial growth measured in glycerol-containing medium; type: functional
[2] = system: Mycobacterium tuberculosis; test: Antimycobacterial activity against Mycobacterium tuberculosis infected in mouse assessed as reduction of lung bacterial load at 25 mg/kg, po; type: functional
[3] = Systemic clearance in mouse; type: ADME, organism-based; settings: in vivo
[4] = Volume of distribution in mouse; type: ADME, organism-based; settings: in vivo
[5] = Elimination half life in mouse; type: ADME, organism-based; settings: in vivo, read-out: beta t1/2 (converted)
[6] = Oral bioavailability in mouse; type: ADME, organism-based; settings: in vivo
[7] = system: Mycobacterium tuberculosis; test: Antimycobacterial activity against Mycobacterium tuberculosis infected in mouse assessed as log reduction of lung bacterial load at 50 mg/kg administered for 4 weeks; type: functional

For Cc1nc2ccccn2c1C(=O)NCc1ccccc1, the MIC50 [1] was 0.2 µM (≈ 0.0531 µg/mL).
With Cc1cc(C)c2cc(C(=O)NC3CCCCC3)[nH]c2c1 the MIC50 [1] was 0.8 µM (≈ 0.216 µg/mL).
With Cc1ccc([C@H]2C[C@@H](C(F)(F)F)n3ncc(C(=O)NCc4ccc(F)cc4)c3N2)cc1 the MIC50 [1] was 0.2 µM (≈ 0.0865 µg/mL) and the log10cfu [2] was 3.5.
Molecule CC1(C)CCC(NC(=O)c2cc3c(Cl)cc(Cl)cc3[nH]2)CC1 has an MIC50 [1] of 0.02 µM (≈ 0.00679 µg/mL), a clearance [3] of 18.1 mL/min/kg and a Vd [4] of 4.1 L/kg. The half-life [5] was 5.1 h and the bioavailability [6] was > 50%.
Work on CC(=O)Nc1ccc(C)c(Nc2nccn2-c2cc(NC3CC3)ncn2)c1 yielded an MIC50 [1] of 1 µM (≈ 0.363 µg/mL).
In the case of Cc1ccc(CNC(=O)c2cnn3c2NC(c2ccccc2)CC3C(F)(F)F)cc1 (stereo unspecified), the MIC50 [1] is reported as 1.9 µM (≈ 0.787 µg/mL).
Molecule CC(C)Cc1cc(O)c(-c2ccccc2)c(=O)[nH]1 has an MIC50 [1] of 2.2 µM (≈ 0.535 µg/mL).
Cc1ccc(C(=O)N2CCOCC2)cc1Nc1nccn1-c1cc(NC2CC2)ncn1 showed an MIC50 [1] of 0.04 µM (≈ 0.0168 µg/mL).
Cc1ccc2nc(C)c(C(=O)NCc3ccc(-c4ccncc4)cc3)n2c1 gave an MIC50 [1] of 0.01 µM (≈ 0.00356 µg/mL) and a log10cfu [7] of 1.
CC1(C)CCC(Cc2cc(O)c(-c3ccccc3)c(=O)[nH]2)CC1 gave an MIC50 [1] of 0.03 µM (≈ 0.00934 µg/mL).
